Reference: patent US20130252832A1, “KRAS Variant and Tumor Biology” (Yale University, priority 2012, published 2013)

What was measured:
wild-type 3′UTR reporter = experiment: Luciferase 3'UTR reporter expression following irinotecan exposure; assay type: cell-based
Source text: (§1) The disclosure provides a method of predicting the response of a cancer cell to the combination of a chemotherapy and monoclonal antibody therapy, including detecting a mutation in let-7 complementary site LCS6 of human KRAS in a patient sample, wherein the mutation is a SNP comprising a uracil (U) or thymine (T) to guanine (G) transition at position 4 of LCS6, and wherein the presence of the mutation indicates a resistance to the combination. In certain embodiments of this method, the cancer cell is a colorectal cancer (CRC) cell. The cancer cell may be evaluated in vitro or ex vivo. […] The chemotherapy may be a cytotoxic agent. A non-limiting example of the cytotoxic agent is irinotecan.
(§2) FIG. 24B is a graph depicting the fold repression (expressed as KRAS variant/KRAS wild type) as a function of irinotecan concentration, when cancer cells are treated with irinotecan.

[1] = tested on: KRAS-variant 3′UTR reporter; experiment: as above; assay type: cell-based
Source text: as §1, §2

## CCc1c2c(nc3ccc(OC(=O)N4CCC(N5CCCCC5)CC4)cc13)-c1cc3c(c(=O)n1C2)COC(=O)[C@]3(O)CC [irinotecan]
wild-type 3′UTR reporter
  Reporter expression following irinotecan exposure: no change
[1]
  Reporter expression following irinotecan exposure: statistically-significant increase
